# Read-outs that look alike come from different tables or passages of the source.
# Experiments:
# [1] = human, in vivo
# Procedure: (§2) Intestinal permeability test in humans: Subjects consumed 0.5-1.0 L water the night before and in the morning about 3 hour prior to sample collection. The first morning urine was voided. No food or other beverages were consumed prior to the test. Permeability probes were ingested after baseline urine collection. […] Test subjects were permitted to drink water or coffee as desired. Light snacks were permitted after the fourth hour. Urine volumes were recorded and 50 mL was retained for analysis.
# (§3) Sample collection: Freshly collected urine (50 ml) was first centrifuged 2500 RCF at 4° C. for 10 minutes.
# (§4) Supernatants were pipetted 40 μL/well in duplicate into plates (#3694, Corning, USA). Fluorescence (Exc/Em 450/580 nm) was read on a plate reader (Infinite M200Pro, Tecan, Switzerland). Concentration was calculated as mg/mL and multiplied by total urine volume in mL, giving total mg in urine. The mg in urine/mg ingested×100 yielded % ingested.
# (§5) The SPE column was cleaned with MeOH and H2O between runs. […] Data was corrected for a 9% loss. After SPE, samples were directed to the various assays.
# (§6) Viologen method for lactulose and mannitol permeability in humans: Ready-made assay 96 well plates were prepared (#3694, Corning, 199 USA). A 4× premix buffer was prepared (0.1 M sodium phosphate, 0.1 M HEPES, 0.04% Triton X-100, pH 7.4). To this was added HPTS (16 μM) and quencher (1.6 mM 4,4′oBBV or 2.0 mM 4,4′oMBV), each 4 times above final concentration. The different viologen concentrations were chosen to achieve similar extents of quenching in the absence of sugar (about 20% of free fluorophore) while preserving a strong signal to noise (S/N). Blank wells were given 10 μl 4× premix buffer with neither HPTS nor viologen. Some wells received 16 μM HPTS without quencher to determine maximum possible fluorescence. All other wells received 10 μl of the complete 4× premix. Those premixes containing 4,4′oBBV were continuously vortexed because the mixture is a suspension. Plates were sealed with plate tape and stored at 4° C. until use.
# (§7) Upon running an assay, 30 μl of standards or samples were pipetted into wells. Final concentrations were 4 μM HPTS and 400 μM 4,4′oBBV or 500 μM 4,4′oMBV. Urine samples were placed in both blank wells (for individual sample blanking) and wells containing complete 4× premix. Plates were put on a shaker for 1 hr, RT. During this time, sugars interacted with the HPTS-viologen complex, liberating HPTS into solution. Plates were then centrifuged at 2500 RCF for 10 minutes at room temperature to pull down remaining HPTS-quencher particulate matter. Plate tape was removed and fluorescence read on a plate reader (Tecan M-200 Infinite, gain 70, 404/535 nm). The height was adjusted to read from the top of the solution (18 mm). […] A Marquardt 4-parameter curve fit was used. Sugar concentrations were calculated as g/mL and multiplied by total urine volume in mL, giving total amount of urine in grams. Values were corrected for percentage recovery from the C18 SPE step. The g in urine/g ingested×100 yielded % ingested. Lactulose measurements were confirmed by enzyme assay. Mannitol measurements were confirmed by HPLC-Evaporative Light Scattering Detector (HPLC-ELSD) using a C8 pre-column and Prevail Carbohydrate ES 5μ 250×4.6 mm column (Grace Davison 224 Discovery Sciences, Ill., USA) with 80:20 MeCN/H2O.
# [2] = Viologen based fluorescence assay for sugars in urine with 4,4′oBBV and HPTS; set-up: species or system human
# Text: (§1) A Marquardt 4-parameter curve fit was used. […] The g in urine/g ingested×100 yielded % ingested. Lactulose measurements were confirmed by enzyme assay.
# Statistics: The lower limit of detection (LLOD) was defined as the analyte concentration in the urine sample at which fluorescence intensity in the assay was 3 standard deviations above the mean baseline fluorescence. Similarly, the lower limit of quantification (LLOQ) was defined as 10 standard deviations above the mean baseline fluorescence. Coefficient of variation percent (CV %) was determined by averaging sets of samples each measured in 4 wells. Results are given as mean±SEM.
# [3] = Quenching of HPTS fluorescence by boronic acid viologen in absence of sugar
# Procedure: as §1
# The term “Initial quench” as used herein refers to HPTS fluorescence in presence of quencher and absence of sugar (maximum achievable quench) as a percent of maximum possible fluorescence with 4 μM free HPTS in absence of any quencher. The term “LLOD” as used herein refers to analyte concentration in original urine sample (as opposed to final concentration in the assay) at which the fluorescence signal equals or exceeds 3 standard deviations above mean assay noise level. The term “LLOQ” as used herein refers to analyte concentration in original urine sample at which the fluorescence signal equals or exceeds 10 standard deviations above mean assay noise level. The term “range” as used herein refers to urine concentrations found in healthy volunteers before transforming data to % ingested. The term “Mean±SEM” as used herein refers to standard mean plus or minus standard error of mean as generally understood in medical science. The term “CV %” as used herein refers to intra-assay coefficient of variation for samples.
# [4] = Intestinal permeability test in humans (urine excretion of ingested probes)
# Procedure: as §2, §3, §4, §5, §6, §7
# [5] = viologen assay system, viologen not specified
compound,measurement,setting,value
"OC[C@H]1O[C@@H](O[C@@H]2[C@@H](CO)OC(O)(CO)[C@H]2O)[C@H](O)[C@@H](O)[C@H]1O (mixture of isomers) [Lactulose, lactulose]",Typical values for humans (urine concentration),[1],0.2 to 1.5 mM
same,signal stronger than fructose,[2]; [5],~20%
"OB(O)c1ccccc1C[n+]1ccc(-c2cc[n+](Cc3ccccc3B(O)O)cc2)cc1 [4,4′oBBV, 1,1′-bis(2-boronobenzyl)-4,4′-bipyridinium]",Relative selectivity,"[2]; 4,4′oBBV",lactulose>fructose>galactose
"OB(O)c1ccccc1C[n+]1ccc(-c2cc[n+](Cc3ccccc3)cc2)cc1 [4,4′oMBV, 1-(2-boronobenzyl)-1′-benzyl-4,4′-bipyridinium]",Initial Quench % Max,"[3]; HPTS fluorescence with quencher and no sugar, as percent of 4 μM free HPTS, final 400 μM 4,4′oBBV or 500 μM 4,4′oMBV",16%
same,"higher concentration required than 4,4′oBBV to achieve the same extent of quenching","[3]; HPTS quenching, 0 μM sugar",about 20%
"OC[C@@H](O)[C@@H](O)[C@H](O)[C@H](O)CO [Mannitol, mannitol]",time of return to baseline in urine after ingestion,[1],about 6 hours
same,Typical values for humans (urine concentration),[4]; human urine,1 to 10 mM
same,RANGE (urine concentrations found in healthy volunteers),"[4]; human urine after oral 50 mg riboflavin, 5 g mannitol or 10 g lactulose, mean±SEM, sugars measured with 4,4′oBBV",3929 ± 972 µM
"Cc1cc2nc3c(=O)[nH]c(=O)nc-3n(C[C@H](O)[C@H](O)[C@H](O)CO)c2cc1C [Riboflavin, riboflavin]",Typical values for humans (urine concentration),[1],0.01 to 0.1 mM
same,time of return to baseline in urine after ingestion,[1],about 6 hours
OC[C@H]1O[C@@H](O[C@H]2[C@H](O)[C@@H](O)C(O)O[C@@H]2CO)[C@H](O)[C@@H](O)[C@H]1O (stereo partly shown) [lactose],"response of 4,4′oBBV to sugar",[2]; 10 mM sugar,essentially no response
OC[C@H]1O[C@H](O[C@]2(CCl)O[C@H](CCl)[C@@H](O)[C@@H]2O)[C@H](O)[C@@H](O)[C@H]1Cl [sucralose],interference with the viologen based method,[2],Neither sucrose nor sucralose interfere
OC[C@H]1O[C@@](CO)(O[C@H]2O[C@H](CO)[C@@H](O)[C@H](O)[C@H]2O)[C@@H](O)[C@@H]1O [sucrose],interference with the viologen based method,[2],Neither sucrose nor sucralose interfere
same,fluorescence signal,[2]; [5],no signal
O=C(CO)[C@@H](O[C@H]1O[C@H](CO)[C@@H](O)[C@H](O)[C@H]1O)[C@H](O)[C@H](O)CO [turanose],fluorescence as percent of fructose,[2]; [5],~30%
same,fluorescence as percent of the lactulose fluorescence,[2]; [5],~20%
